What follows are molecules tested against CCR8 (Homo sapiens, UniProt P51685) (assay: Tango assay (Tango-CCR8-Gal4-CHO-K1 cells, CCL1-stimulated, ONE-Glo luminescence)). Conditions: Tango Assay IC50, Inhibition of CCR8 Tango cell in vitro.
CCR8, sequence (P51685 whole entry, the tested form may be a part): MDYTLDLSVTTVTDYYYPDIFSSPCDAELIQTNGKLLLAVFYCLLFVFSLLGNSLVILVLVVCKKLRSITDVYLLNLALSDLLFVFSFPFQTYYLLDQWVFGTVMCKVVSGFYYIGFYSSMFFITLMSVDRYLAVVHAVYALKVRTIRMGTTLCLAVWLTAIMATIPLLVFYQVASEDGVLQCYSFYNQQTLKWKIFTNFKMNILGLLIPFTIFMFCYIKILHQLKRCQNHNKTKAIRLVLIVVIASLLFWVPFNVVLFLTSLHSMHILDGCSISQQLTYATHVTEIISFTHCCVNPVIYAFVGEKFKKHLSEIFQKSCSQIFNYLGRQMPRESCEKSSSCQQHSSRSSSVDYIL
Method: The Tango cell line was used to monitor antagonists-mediated receptor inactivation.
Tango cells (Tango-CCR8-Gal4-CHO-K1 cells constructed by Genomeditech) were passaged in complete medium (F12K, 10% FBS, 1% penicillin-streptomycin, 4 μg/ml puromycin, 4 μg/ml blasticidin and 100 μg/ml hygromycin) in incubator (37° C., 5% CO2).
Twenty-four hours before the seed, cells were cultured in 10 or 15 cm dish at a density of 30% confluence in culture medium (F12K, 10% FBS, 1% penicillin-streptomycin).
Cells were suspended in starving medium (F12K, 1% FBS, 1% penicillin-streptomycin) before being seeded into black/clear 96 wells (1×10^4 cells/70 μl/well) and incubated for 6 hours (37° C., 5% CO2). Different concentration of compound, dissolved in DMSO, was into the 96-well plates, with 50 μl in each well, and incubation continued for 1 hour at 37° C.
After the incubation, the medium was removed and the 96-well plate was put in −80° C. freezer for an hour or longer. The plate and the ONE-Glo reagent (Promega, Catalog Number: E6110) which was frozen in −80° C., were taken out and rewarmed to room temperature. The ONE-Glo working reagent was prepared by mixing ONE-Glo reagent with F12K (no FBS) (1:2), and 40 μl ONE-Glo working reagent was added into each well. After incubating for 10 minutes at room temperature, the plate was read using microplate luminescence reader at 560 nm.
The microplate reader records luminescence in relative luminescence units (RLU).
With CC(=O)N1CCCC(C(C)NS(=O)(=O)c2ccc(NC(=O)c3ccccc3C)c3ccccc23)C1 (single isomer, unassigned) [Compound 18A, N-(4-(N-(1-(1-acetylpiperidin-3-yl)ethyl)sulfamoyl)naph-thalen-1-yl)-2-methylbenzamide] the IC50 was 0.021 µM. Work on CC(=O)N1CCCC(C(C)NS(=O)(=O)c2ccc(NC(=O)c3ccccc3C)c3ccccc23)C1 (single isomer, unassigned) [Compound 18B, N-(4-(N-(1-(1-acetylpiperidin-3-yl)ethyl)sulfamoyl)naph-thalen-1-yl)-2-methylbenzamide] yielded an IC50 of 0.1 µM. COC(=O)CN1CCCC(C(C)NS(=O)(=O)c2ccc(NC(=O)c3ccccc3C)c3ccccc23)C1 (single isomer, unassigned) [Compound 19A, methyl 2-(3-(1-(4-(2-methylbenzamido)naph-thalene-1-sulfonamido)ethyl)piper-idin-1-yl)acetate] showed an IC50 of 2.8 µM. COC(=O)CN1CCCC(C(C)NS(=O)(=O)c2ccc(NC(=O)c3ccccc3C)c3ccccc23)C1 (single isomer, unassigned) [Compound 19B, methyl 2-(3-(1-(4-(2-methylbenzamido)naph-thalene-1-sulfonamido)ethyl)piper-idin-1-yl)acetate] showed an IC50 greater than 10 µM. For Cc1ccccc1C(=O)Nc1ccc(S(=O)(=O)NC(C)C2CCCCN2C(=O)OC(C)(C)C)c2ccccc12 (single isomer, unassigned) [Compound 67, tert-butyl 2-(1-(4-(2-methylbenzamido)naph-thalene-1-sulfonamido)ethyl)piper-idine-1-carboxylate], the IC50 was 0.283 µM. Cc1ccccc1C(=O)Nc1ccc(S(=O)(=O)NC(C)C2CCCCN2C(=O)OC(C)(C)C)c2ccccc12 (single isomer, unassigned) [Compound 68, tert-butyl 2-(1-(4-(2-methylbenzamido)naph-thalene-1-sulfonamido)ethyl)piper-dine-1-carboxylate] was tested, and the IC50 was 1.76 µM. COC(=O)CN1CCCCC1C(C)NS(=O)(=O)c1ccc(NC(=O)c2ccccc2C)c2ccccc12 (single isomer, unassigned) [Compound 70A, methyl 2-(2-(1-(4-(2-methylbenzamido)naph-thalene-1-sulfonamido)ethyl)piper-idin-1-yl)acetate] showed an IC50 of 0.116 µM. COC(=O)CN1CCCCC1C(C)NS(=O)(=O)c1ccc(NC(=O)c2ccccc2C)c2ccccc12 (single isomer, unassigned) [Compound 70B, methyl 2-(2-(1-(4-(2-methylbenzamido)naph-thalene-1-sulfonamido)ethyl)piper-idin-1-yl)acetate] gave an IC50 greater than 10 µM. Molecule Cc1ccccc1C(=O)Nc1ccc(S(=O)(=O)NC(C)C2CCCN(C(=O)CNC(=O)OC(C)(C)C)C2)c2ccccc12 (single isomer, unassigned) [Compound 155B, tert-butyl (2-(3-(1-(4-(2-methylbenzamido)naph-thalene-1-sulfonamido)ethyl)piper-idin-1-yl)-2-oxoethyl)carbamate] has an IC50 greater than 10 µM. Molecule Cc1ccccc1C(=O)Nc1ccc(S(=O)(=O)NC(C)C2CCCN(C(=O)CN)C2)c2ccccc12 (single isomer, unassigned) [Compound 156A, N-(4-(N-(1-(1-(2-ammoacetyl)piperidin-3-yl)ethyl)sulfamoyl)naph-thalen-1-yl)-2-methylbenzamide] has an IC50 of 0.085 µM. Cc1ccccc1C(=O)Nc1ccc(S(=O)(=O)NC(C)C2CCCN(C(=O)CN)C2)c2ccccc12 (single isomer, unassigned) [Compound 156B, N-(4-(N-(1-(1-(2-aminoacetyl)piperidin-3-yl)ethyl)sulfamoyl)naph-thalen-1-yl)-2-methylbenzamide] showed an IC50 greater than 10 µM. For Cc1ccccc1C(=O)Nc1ccc(S(=O)(=O)NC(C)C2CCCN(C(=O)CN)C2)c2ccccc12 (single isomer, unassigned) [Compound 156C, N-(4-(N-(1-(1-(2-aminoacetyl)piperidin-3-yl)ethyl)sulfamoyl)naph-thalen-1-yl)-2-methylbenzamide], the IC50 was 0.205 µM. In the case of Cc1ccccc1C(=O)Nc1ccc(S(=O)(=O)NC(C)C2CCCN(C(=O)CN)C2)c2ccccc12 (single isomer, unassigned) [Compound 156D, N-(4-(N-(1-(1-(2-aminoacetyl)piperidin-3-yl)ethyl)sulfamoyl)naph-thalen-1-yl)-2-methylbenzamide], the IC50 is reported as greater than 10 µM. Work on Cc1ccccc1C(=O)Nc1ccc(S(=O)(=O)NC(C)C2CCCN(C(=O)[C@H](C)NC(=O)OC(C)(C)C)C2)c2ccccc12 (single isomer, unassigned) [Compound 157A] yielded an IC50 greater than 10 µM. Molecule Cc1ccccc1C(=O)Nc1ccc(S(=O)(=O)NC(C)C2CCCN(C(=O)[C@H](C)N)C2)c2ccccc12 (single isomer, unassigned) [Compound 158A] has an IC50 of 1.5 µM. Cc1ccccc1C(=O)Nc1ccc(S(=O)(=O)NC(C)C2CCCN(C(=O)[C@H](C)N)C2)c2ccccc12 (single isomer, unassigned) [Compound 158B] was tested, and the IC50 was 0.685 µM. Cc1ccccc1C(=O)Nc1ccc(S(=O)(=O)NC(C)C2CCCN(C(=O)[C@H](C)N)C2)c2ccccc12 (single isomer, unassigned) [Compound 158C] showed an IC50 of 0.458 µM. For Cc1ccccc1C(=O)Nc1ccc(S(=O)(=O)NC(C)C2CCCN(C(=O)[C@H](C)N)C2)c2ccccc12 (single isomer, unassigned) [Compound 158D], the IC50 was 1.02 µM. CCCN1CCN(c2cccc(NS(=O)(=O)c3ccc(NC(=O)c4ccccc4C)c4ccccc34)c2C)CC1 [Compound 2, 2-methyl-N-(4-(N-(2-methyl-3-(4-propylpiperazin-1-yl)phenyl)sulfamoyl)naphthalen-1-yl)benzamide] showed an IC50 greater than 10 µM. Molecule CCCN1CCN(c2ccc(OC)c(NS(=O)(=O)c3ccc(NC(=O)c4ccccc4C)c4ccccc34)c2)CC1 [Compound 3, N-(4-(N-(2-methoxy-5-(4-propylpiperazin-1-yl)phenyl)sulfamoyl)naphthalen-1-yl)-2-methylbenzamide] has an IC50 greater than 10 µM. CCCN1CCCN(c2cc(NS(=O)(=O)c3ccc(NC(=O)c4ccccc4C)c4ccccc34)ccc2OC)CC1 [Compound 4, N-(4-(N-(4-methoxy-3-(4-propyl-1,4-diazepan-1-yl)phenyl)sulfamoyl)naphthalen-1-yl)-2-methylbenzamide] was tested, and the IC50 was 1.17 µM. Work on CCOC(=O)N1CCCC(C(=O)NS(=O)(=O)c2ccc(NC(=O)c3ccccc3C)c3ccccc23)C1 (stereo not drawn) [Compound 5, ethyl 3-(((4-(2-methylbenzamido)naph-thalen-1-yl)sulfonyl)carbamoyl) piperidine-1-carboxylate] yielded an IC50 greater than 10 µM. CCCC(=O)N1CCCC1C(=O)NS(=O)(=O)c1ccc(NC(=O)c2ccccc2C)c2ccccc12 (stereo not drawn) [Compound 7, 1-butyryl-N-((4-(2-methylbenzamido)naph-thalen-1-yl)sulfonyl)pyrrolidine-2-carboxamide] gave an IC50 greater than 10 µM. Work on CCCC(=O)N1CCCC(C(=O)NS(=O)(=O)c2ccc(NC(=O)c3ccccc3C)c3ccccc23)C1 (stereo not drawn) [Compound 9, 1-butyryl-N-((4-(2-methylbenzamido)naph-thalen-1-yl)sulfonyl)piperidine-3-carboxamide] yielded an IC50 greater than 10 µM. Molecule Cc1ccccc1C(=O)Nc1ccc(S(=O)(=O)NC(=O)c2cccc(N(C)C)c2)c2ccccc12 [Compound 10, N-(4-(N-(3-(dimethylamino)benzoyl)sulfamoyl)naphthalen-1-yl)-2-methylbenzamide] has an IC50 greater than 10 µM. CCCN1CCN(c2cccc(C(=O)NS(=O)(=O)c3ccc(NC(=O)c4ccccc4C)c4ccccc34)c2)CC1 [Compound 11, 2-methyl-N-(4-(N-(3-(4-propylpiperazin-1-yl)benzoyl)sulfamoyl)naphthalen-1-yl)benzamide] was tested, and the IC50 was greater than 10 µM. Cc1ccccc1C(=O)Nc1ccc(S(=O)(=O)NC(=O)c2ccccc2N2CCCCC2)c2ccccc12 [Compound 12, 2-methyl-N-(4-(N-(2-(piperidin-1-yl)benzoyl)sulfamoyl)naphthalen-1-yl)benzamide] was tested, and the IC50 was greater than 10 µM. Molecule Cc1ccccc1C(=O)Nc1ccc(S(=O)(=O)NC(=O)c2ccccc2N2CCOCC2)c2ccccc12 [Compound 13, 2-methyl-N-(4-(N-(2-morpholinobenzoyl)sul-famoyl)naphthalen-1-yl)benzamide] has an IC50 greater than 10 µM. CCCC(=O)N1CCCC(CNS(=O)(=O)c2ccc(NC(=O)c3ccccc3C)c3ccccc23)C1 (stereo not drawn) [Compound 14, N-(4-(N-((1-butyrylpiperidine-3-yl)methyl)sulfamoyl)naphthalen-1-yl)-2-methylbenzamide] gave an IC50 greater than 10 µM. With CCCC(=O)N1CCC(CNS(=O)(=O)c2ccc(NC(=O)c3ccccc3C)c3ccccc23)C1 (stereo not drawn) [Compound 15, N-(4-(N-((1-butyrylpyrrolidin-3-yl)methyl)sulfamoyl)naphthalen-1-yl)-2-methylbenzamide] the IC50 was greater than 10 µM.

Same assay, conditions: read-out: Tango Assay IC50, Inhibition of CCR8 Tango cell in vitro
Cc1ccccc1C(=O)Nc1ccc(S(=O)(=O)NC(C)C2CCCN(C(=O)[C@H](C)NC(=O)OC(C)(C)C)C2)c2ccccc12 (single isomer, unassigned) [Compound 157B] was tested, and the IC50 was greater than 10 µM. Cc1ccccc1C(=O)Nc1ccc(S(=O)(=O)NC(C)C2CCCN(C(=O)[C@H](C)NC(=O)OC(C)(C)C)C2)c2ccccc12 (single isomer, unassigned) [Compound 157C] gave an IC50 greater than 10 µM. In the case of Cc1ccccc1C(=O)Nc1ccc(S(=O)(=O)NC(C)C2CCCN(C(=O)[C@H](C)NC(=O)OC(C)(C)C)C2)c2ccccc12 (single isomer, unassigned) [Compound 157D], the IC50 is reported as greater than 10 µM. With COC1CCC([C@@H](C)NS(=O)(=O)c2ccc(NC(=O)c3ccccc3C)c(C)c2)CC1 (single isomer, unassigned) [Compound 293A, N-(4-(N-(1-(4-methoxycyclohexyl)ethyl)sulfamoyl)-2-methylphenyl)-2-methylbenzamide] the IC50 was 0.024 µM. In the case of COC1CCC([C@@H](C)NS(=O)(=O)c2ccc(NC(=O)c3ccccc3C)c(C)c2)CC1 (single isomer, unassigned) [Compound 293B, N-(4-(N-(1-(4-methoxycyclohexyl)ethyl)sulfamoyl)-2-methylphenyl)-2-methylbenzamide], the IC50 is reported as 0.046 µM. In the case of CCCC(=O)N1CCCC(C(C)NS(=O)(=O)c2ccc(NC(=O)c3ccccc3C)c3ccccc23)C1 (stereo not drawn) [Compound 16, N-(4-(N-(1-(1-butyrylpiperidin-3-yl)ethyl)sulfamoyl)naph-thalen-1-yl)-2-methylbenzamide], the IC50 is reported as 0.5 µM.
